In US6054478A, “Antifungal sordaridin derivatives” (Glaxo Wellcome S.A., priority 1994, dated 2000):
Converted amounts (≈) assume the structure as drawn.

Tests used:
C. albicans 1208E = assay: in vitro antifungal MIC, two-fold serial dilution; format: cell-based; details: Candida albicans, 24 to 48 hours at 37° C
Procedure: (§1) The in vitro evaluation of the anti-fungal activity of compounds of the invention was performed on liquid or solid medium by the anti-fungal two-fold serial dilution technique of determining the minimum inhibitory concentration (MIC) of anti-fungal agent that inhibited development of growth after 24 to 48 hours of incubation at 37° C. In practice, a series of agar plates or broth microdilution panels containing two-fold dilutions of anti-fungal agent tested were inoculated with a standard culture of a clinically relevant pathogen, for example, candida albicans. The agar plates or broth microdulution panels were then examined for the presence or absence of growth of the fungus and the appropriate MIC values were noted. Compounds of formula (I) have been tested for anti fungal activity in a standard in vitro screen and the minimum inhibiting concentration (MIC; μg/ml) determined for each compound against a variety of clinically relevant pathogens.

C. albicans 4711 = assay: in vitro antifungal MIC, two-fold serial dilution; format: cell-based; details: Candida albicans, 24 to 48 hours at 37° C
Procedure: as §1

C. albicans 2402E = assay: in vitro antifungal MIC, two-fold serial dilution; format: cell-based; details: Candida albicans, 24 to 48 hours at 37° C
Procedure: as §1

C. albicans 2005E = assay: in vitro antifungal MIC, two-fold serial dilution; format: cell-based; details: Candida albicans, 24 to 48 hours at 37° C
Procedure: as §1

C. neoformans 2867E = assay: in vitro antifungal MIC, two-fold serial dilution; format: cell-based; details: Cryptococcus neoformans, 24 to 48 hours at 37° C
Procedure: as §1

C. glabrata 2376E = assay: in vitro antifungal MIC, two-fold serial dilution; format: cell-based; details: Nakaseomyces glabratus, 24 to 48 hours at 37° C
Procedure: as §1

C. glabrata 2375E = assay: in vitro antifungal MIC, two-fold serial dilution; format: cell-based; details: Nakaseomyces glabratus, 24 to 48 hours at 37° C
Procedure: as §1

C. tropicalis 2808E = assay: in vitro antifungal MIC, two-fold serial dilution; format: cell-based; details: Candida tropicalis, 24 to 48 hours at 37° C
Procedure: as §1

C. psuedotropicalis 371E = assay: in vitro antifungal MIC, two-fold serial dilution; format: cell-based, Candida pseudotropicalis; details: Kluyveromyces marxianus, 24 to 48 hours at 37° C
Procedure: as §1

fungal organisms = details: cited from earlier work; for antifungal activity (reported): reported in the literature; for antifungal activity and spectrum of action: when tested against a battery of fungal organisms
C. albicans 4711E = assay: in vivo protection of mice infected with C. albicans; design: species or system Candida albicans; male mice; details: 50 mg/kg sc
Description: The in vivo evaluation of compounds of formula (I) can be carried out at a series of dose levels by administration (e.g. subcutaneously, orally, intraperitoneally or intravenously) to mice or rats inoculated with a strain of Candida albicans. Untreated animals die within 3 to 9 days and the dose level at which the test compound provides 50% protection against the lethal effect of the infection is noted.
(§2) The compounds of the invention are essentially non-toxic at therapeutically useful levels.

[1] = adverse effects in treated mice; format: in vivo, male mice; details: 50 mg/kg sc
Description: as §2

SMILES	MIC (C. albicans 1208E)	MIC (C. albicans 4711)	MIC (C. albicans 2402E)	MIC (C. albicans 2005E)	MIC (C. neoformans 2867E)	MIC (C. glabrata 2376E)	MIC (C. glabrata 2375E)	MIC (C. tropicalis 2808E)	MIC (C. psuedotropicalis 371E)	antifungal activity (reported) (fungal organisms)	antifungal activity and spectrum of action (fungal organisms)	protection of male mice infected with C. albicans 4711E (C. albicans 4711E)	adverse effects in the treated mice [1]
COC1C(C)OC(OCC23CC4C(C)CCC4C4(C=O)CC2C=C(C(C)C)C43C(=O)O)C(O)C1SC [Example 11, [1R-(1α, 3aβ, 4β, 4aβ, 7β, 7aα, 8aβ)] 8a-[(3,6-Dideoxy-4-O-methyl-3-methylthio-β-D-altropyranosyloxy)methyl]-4-formyl-4,4a,5,6,7,7a,8,8a-octahydro-7-methyl-3-(1-methylethyl)-1,4-methano-s-indacene-3a(1H)-carboxylic acid]	1 µg/mL (≈ 1.91 µM)	1 µg/mL (≈ 1.91 µM)	1 µg/mL (≈ 1.91 µM)	0.25 µg/mL (≈ 0.478 µM)	0.05 µg/mL (≈ 0.0957 µM)	31 µg/mL (≈ 59.3 µM)	31 µg/mL (≈ 59.3 µM)	2 µg/mL (≈ 3.83 µM)	1 µg/mL (≈ 1.91 µM)				
CC=CC=CC(=O)OC1C(O)C(OCC23CC4C(C)CCC4C4(C=O)CC2C=C(C(C)C)C43C(=O)O)OC(C)C1OC (stereo not drawn) [zofimarin]										antifungal activity	only moderately active and have limited spectra of action		
CCCOC1C(C)OC(OCC23CC4C(C)CCC4C4(C=O)CC2C=C(C(C)C)C43C(=O)O)CC1OC [Example 9, [1R-(1α, 3aβ, 4β, 4aβ, 7β, 7aα, 8aβ)] 8a-[(2,6-Dideoxy-3-O-methyl-4-O-propyl-β-D-allopyranosyloxy)methyl]-4-formyl-4,4a,5,6,7,7a,8,8a-octahydro-7-methyl-3-(1-methylethyl)-1,4-methano-s-indacene-3a(1H)-carboxylic acid]	8 µg/mL (≈ 15.4 µM)	4 µg/mL (≈ 7.71 µM)	8 µg/mL (≈ 15.4 µM)	2 µg/mL (≈ 3.86 µM)	125 µg/mL (≈ 241 µM)	> 125 µg/mL	> 125 µg/mL	16 µg/mL (≈ 30.8 µM)	2 µg/mL (≈ 3.86 µM)				
COC1C(N=[N+]=[N-])CC(OCC23CC4C(C)CCC4C4(C=O)CC2C=C(C(C)C)C43C(=O)O)OC1C [Example 15, [1R-(1α, 3aβ, 4β, 4aβ, 7β, 7aα, 8aβ)] 8a-[(3-Azido-4-O-methyl-2,3,6-trideoxy-β-D-allopyranosyloxy)methyl]-4-formyl-4,4a,5,6,7,7a,8,8a-octahydro-7-methyl-3-(1-methylethyl)-1,4-methano-s-indacene-3a(1)-carboxylic acid]	≤ 0.001 µg/mL	≤ 0.001 µg/mL	≤ 0.001 µg/mL	≤ 0.001 µg/mL	31 µg/mL (≈ 61.8 µM)	1 µg/mL (≈ 1.99 µM)	1 µg/mL (≈ 1.99 µM)	0.004 µg/mL (≈ 0.00797 µM)	≤ 0.001 µg/mL				
CCCCCCCC(=O)OC1C(O)C(OCC23CC4C(C)CCC4C4(C=O)CC2C=C(C(C)C)C43C(=O)O)OC(C)C1OC [Example 24, [1R-(1α, 3aβ, 4β, 4aβ, 7β, 7aα, 8aβ,)] 8a-[(6-Deoxy-4-O-methyl-3'-O-octanoyl-β-D-altropyranosyloxy)methyl]-4-formyl-4,4a,5,6,7,7a,8,8a-octahydro-7-methyl-3-(1-methylethyl)-1,4-methano-s-indacene-3a(1H)-carboxylic acid]	0.6 µg/mL (≈ 0.97 µM)		0.03 µg/mL (≈ 0.0485 µM)	≤ 0.001 µg/mL	0.25 µg/mL (≈ 0.404 µM)	500 µg/mL (≈ 808 µM)	500 µg/mL (≈ 808 µM)	0.06 µg/mL (≈ 0.097 µM)	0.004 µg/mL (≈ 0.00646 µM)				
CCCOC1CC(OCC23CC4C(C)CCC4C4(C=O)CC2C=C(C(C)C)C43C(=O)O)OC(C)C1OC [Example 7, [1R-(1α, 3aβ, 4β, 4aβ, 7β, 7aα, 8aβ)] 8a-[(2,6-Dideoxy-4-O-3-O-propyl-β-D-alopyranosyloxy)methyl]-4-formyl-4,4a,5,6,7,7a,8,8a-octahydro-7-methyl-3-(1-methylethyl)-1,4-methano-s-indacene-3a(1H)-carboxylic acid]	0.015 µg/mL (≈ 0.0289 µM)	0.004 µg/mL (≈ 0.00771 µM)	0.008 µg/mL (≈ 0.0154 µM)	≤ 0.001 µg/mL	125 µg/mL (≈ 241 µM)	8 µg/mL (≈ 15.4 µM)	8 µg/mL (≈ 15.4 µM)	0.003 µg/mL (≈ 0.00578 µM)	0.004 µg/mL (≈ 0.00771 µM)			active in protecting male mice	no adverse effects were observed
COCOC1CC(OCC23CC4C(C)CCC4C4(C=O)CC2C=C(C(C)C)C43C(=O)O)OC(C)C1OC [Example 8, [1R-(1α, 3aβ, 4β, 4aβ, 7β, 7aα, 8aβ)] 8a-[(2,6-Dideoxy-4-O-methyl-3-O-methyloxymethyl-β-D-allopyranosyloxy)methyl]-4-formyl-4,4a,5,6,7,7a,8,8a-octahydro-7-methyl-3-(1-methylethyl)-1,4-methano-s-indacene-3a(1H)-carboxylic acid]	0.25 µg/mL (≈ 0.48 µM)	0.12 µg/mL (≈ 0.23 µM)	0.25 µg/mL (≈ 0.48 µM)	0.03 µg/mL (≈ 0.0576 µM)	31 µg/mL (≈ 59.5 µM)	16 µg/mL (≈ 30.7 µM)	16 µg/mL (≈ 30.7 µM)	2 µg/mL (≈ 3.84 µM)	0.12 µg/mL (≈ 0.23 µM)				
CC(=O)OC1C(C)OC(OCC23CC4C(C)CCC4C4(C=O)CC2C=C(C(C)C)C43C(=O)O)CC1SC(C)=O [Example 42, [1R-(1α, 3aβ, 4β, 4aβ, 7β, 7aα, 8aβ)] 8a-(((2,3,6-Trideoxy-4-O-acetyl-3-acetylthio-b-D-allopyranosyl)oxy)methyl)-4-formyl-4,4a,5,6,7,7a,8,8a-octahydro-7-methyl-3-(1-methylethyl)-1,4-methano-s-indacene-3a(1H)-carboxylic acid]	0.06 µg/mL (≈ 0.107 µM)	0.015 µg/mL (≈ 0.0267 µM)	0.06 µg/mL (≈ 0.107 µM)	≤ 0.001 µg/mL	> 125 µg/mL	31 µg/mL (≈ 55.1 µM)	31 µg/mL (≈ 55.1 µM)	1 µg/mL (≈ 1.78 µM)	≤ 0.001 µg/mL				
COC1CCC(OCC23CC4C(C)CCC4C4(C=O)CC2C=C(C(C)C)C43C(=O)O)OC1C [Example 39, [1R-(1α, 3aβ, 4aβ, 7β, 7aα, 8aβ)] 8a-[(2,3,6-Trideoxy-4-O-methyl-β-D-allopyranosyloxy)methyl]-4-formyl-4,4a,5,6,7,7a,8,8a-octahydro-7-methyl-3-(1-methylethyl)-1,4-methano-s-indacene-3a(1H)-carboxylic acid]	0.06 µg/mL (≈ 0.13 µM)		0.06 µg/mL (≈ 0.13 µM)	0.004 µg/mL (≈ 0.00868 µM)	62 µg/mL (≈ 135 µM)	8 µg/mL (≈ 17.4 µM)	8 µg/mL (≈ 17.4 µM)	0.25 µg/mL (≈ 0.543 µM)	0.008 µg/mL (≈ 0.0174 µM)				
COC1C(C)OC(OCC23CC4C(C)CCC4C4(C=O)CC2C=C(C(C)C)C43C(=O)O)C(O)C1N=[N+]=[N-] [Example 10, [1R-(1α, 3aβ, 4β, 4aβ, 7β, 7aα, 8aβ)] 8a-[(3-Azido-3,6-dideoxy-4-O-methylβ-D-altropyranosyloxy)methyl]-4-formyl-4,4a,5,6,7,7a,8,8a-octahydro-7-methyl-3-(1-methylethyl)-1,4-methano-s-indacene-3a(1H)-carboxylic acid]	1 µg/mL (≈ 1.93 µM)	0.5 µg/mL (≈ 0.966 µM)	1 µg/mL (≈ 1.93 µM)	0.12 µg/mL (≈ 0.232 µM)	4 µg/mL (≈ 7.73 µM)	62 µg/mL (≈ 120 µM)	62 µg/mL (≈ 120 µM)					active in protecting male mice	no adverse effects were observed
COC1C(C)OC(OCC23CC4C(C)CCC4C4(C=O)CC2C=C(C(C)C)C43C(=O)O)C(O)C1O (stereo not drawn) [sordarin]										fungistatic activity	only moderately active and have limited spectra of action		
CCCCCCOC1C(O)C(OCC23CC4C(C)CCC4C4(C=O)CC2C=C(C(C)C)C43C(=O)O)OC(C)C1OC [Example 3, [1R-(1α, 3aβ, 4β4aβ, 7β, 7aα, 8aβ)] 8a-[(6-Deoxy-3-O-hexyl-4-O-methyl-β-D-altropyranosyloxy)methyl]-4-formyl-4,4a,5,6,7,7a,8,8a-octahydro-7-methyl-3-(1-methylethyl)-1,4-methano-s-indacene-3a(1H)-carboxylic acid]	4 µg/mL (≈ 6.94 µM)		2 µg/mL (≈ 3.47 µM)	0.25 µg/mL (≈ 0.433 µM)	31 µg/mL (≈ 53.7 µM)	> 125 µg/mL	> 125 µg/mL	1 µg/mL (≈ 1.73 µM)	0.25 µg/mL (≈ 0.433 µM)				
COC1CC(OCC23CC4C(C)CCC4C4(C=O)CC2C=C(C(C)C)C43C(=O)O)OC(C)C1OC [Example 5, [1R-(1α, 3aβ, 4β, 4aβ, 7β, 7aα, 8aβ)] 8a-[(2,6-Dideoxy-3,4-O-dimethyl-β-D-allopyranosyloxy)methyl]-4-formyl-4,4a,5,6,7,7a,8,8a-octahydro-7-methyl-3-(1-methylethyl)-1,4-methano-s-indacene-3a(1H)-carboxylic acid]	≤ 0.001 µg/mL	≤ 0.001 µg/mL	≤ 0.001 µg/mL	≤ 0.001 µg/mL	31 µg/mL (≈ 63.2 µM)	1 µg/mL (≈ 2.04 µM)	1 µg/mL (≈ 2.04 µM)	0.004 µg/mL (≈ 0.00815 µM)	≤ 0.001 µg/mL				
